Reference: PMC9571063 (Molecules, 2022)
Read-outs that look alike come from different tables or passages of the source.

Tests used:
ADCK3 = molecular target: T1, ADCK3 (Homo sapiens, UniProt Q8NI60); test: KINOMEscan; format: binding; settings: read-out: Percent Control
T1 construct: purchased Eurofins DiscoverX KINOMEscan (scanMAX 468)

EGFR(S752-I759del) = molecular target: T2, EGFR(S752-I759del) (Homo sapiens, UniProt P00533, DEL752-759); test: KINOMEscan; format: binding; settings: read-out: Percent Control
T2 construct: purchased Eurofins DiscoverX KINOMEscan (scanMAX 468)

DDR1 = molecular target: T3, DDR1 (Homo sapiens, UniProt Q08345); test: KINOMEscan; format: binding; settings: read-out: Percent Control
T3 construct: purchased Eurofins DiscoverX KINOMEscan (scanMAX 468)
T3 sequence (Q08345 19-913): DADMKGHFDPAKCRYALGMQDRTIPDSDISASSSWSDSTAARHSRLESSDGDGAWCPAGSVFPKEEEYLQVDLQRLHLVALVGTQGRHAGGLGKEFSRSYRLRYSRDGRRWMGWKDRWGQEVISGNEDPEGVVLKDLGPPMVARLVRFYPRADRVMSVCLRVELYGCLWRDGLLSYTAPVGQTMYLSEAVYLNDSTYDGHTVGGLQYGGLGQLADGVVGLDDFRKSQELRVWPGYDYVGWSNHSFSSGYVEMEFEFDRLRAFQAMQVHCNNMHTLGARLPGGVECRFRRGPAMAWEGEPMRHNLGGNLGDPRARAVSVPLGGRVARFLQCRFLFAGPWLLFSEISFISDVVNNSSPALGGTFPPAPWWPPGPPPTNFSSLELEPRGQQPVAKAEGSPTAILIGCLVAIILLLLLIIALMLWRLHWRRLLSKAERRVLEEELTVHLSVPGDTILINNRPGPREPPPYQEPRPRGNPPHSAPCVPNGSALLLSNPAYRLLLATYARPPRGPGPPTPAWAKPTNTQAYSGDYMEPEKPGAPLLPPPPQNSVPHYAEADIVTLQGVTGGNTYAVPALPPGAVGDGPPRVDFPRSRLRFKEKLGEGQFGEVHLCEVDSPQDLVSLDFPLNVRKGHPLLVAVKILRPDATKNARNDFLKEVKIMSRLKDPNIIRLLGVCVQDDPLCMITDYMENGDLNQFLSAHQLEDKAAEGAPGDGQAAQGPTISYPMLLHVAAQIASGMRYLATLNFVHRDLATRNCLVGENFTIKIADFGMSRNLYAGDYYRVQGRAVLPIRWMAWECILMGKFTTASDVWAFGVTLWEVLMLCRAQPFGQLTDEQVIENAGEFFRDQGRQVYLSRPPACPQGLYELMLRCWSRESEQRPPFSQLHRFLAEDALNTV

TYRO3 = molecular target: T4, TYRO3 (Homo sapiens, UniProt Q06418); test: KINOMEscan; format: binding; settings: read-out: Percent Control
T4 construct: purchased Eurofins DiscoverX KINOMEscan (scanMAX 468)

FER = molecular target: T5, FER (Homo sapiens, UniProt P16591); test: KINOMEscan; format: binding; settings: read-out: Percent Control
T5 construct: purchased Eurofins DiscoverX KINOMEscan (scanMAX 468)

MLCK = molecular target: T6, MLCK (Homo sapiens, UniProt Q32MK0); test: KINOMEscan; format: binding; settings: read-out: Percent Control
T6 construct: purchased Eurofins DiscoverX KINOMEscan (scanMAX 468)

BUB1 = molecular target: T7, BUB1 (Homo sapiens, UniProt O43683); test: KINOMEscan; format: binding; settings: read-out: Percent Control
T7 construct: purchased Eurofins DiscoverX KINOMEscan (scanMAX 468)

HPK1 = molecular target: T8, HPK1 (Homo sapiens, UniProt Q92918); test: KINOMEscan; format: binding; settings: read-out: Percent Control
T8 construct: purchased Eurofins DiscoverX KINOMEscan (scanMAX 468)

CDK4 = molecular target: T9, CDK4 (Homo sapiens, UniProt P11802); test: KINOMEscan; format: binding; settings: read-out: Percent Control
T9 construct: purchased Eurofins DiscoverX KINOMEscan (scanMAX 468)

DAPK3 = molecular target: T10, DAPK3 (Homo sapiens, UniProt O43293); test: KINOMEscan; format: binding; settings: read-out: Percent Control
T10 construct: purchased Eurofins DiscoverX KINOMEscan (scanMAX 468)
T10 sequence (O43293 whole entry): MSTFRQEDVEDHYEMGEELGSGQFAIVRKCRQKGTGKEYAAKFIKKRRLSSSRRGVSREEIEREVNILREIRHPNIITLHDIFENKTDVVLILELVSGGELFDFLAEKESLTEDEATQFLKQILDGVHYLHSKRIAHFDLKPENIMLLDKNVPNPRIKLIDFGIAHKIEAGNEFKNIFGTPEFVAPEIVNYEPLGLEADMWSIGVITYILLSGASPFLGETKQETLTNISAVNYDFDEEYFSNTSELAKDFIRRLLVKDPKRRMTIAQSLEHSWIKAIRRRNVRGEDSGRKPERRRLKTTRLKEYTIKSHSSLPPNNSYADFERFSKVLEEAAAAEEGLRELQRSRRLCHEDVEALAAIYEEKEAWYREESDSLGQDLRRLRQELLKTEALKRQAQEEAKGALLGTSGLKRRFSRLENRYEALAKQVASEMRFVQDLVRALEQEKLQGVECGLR

SRPK2 = molecular target: T11, SRPK2 (Homo sapiens, UniProt P78362); test: KINOMEscan; format: binding; settings: read-out: Percent Control
T11 construct: purchased Eurofins DiscoverX KINOMEscan (scanMAX 468)

STK36 = molecular target: T12, STK36 (Homo sapiens, UniProt Q9NRP7); test: KINOMEscan; format: binding; settings: read-out: Percent Control
T12 construct: purchased Eurofins DiscoverX KINOMEscan (scanMAX 468)

PIP5K2B = molecular target: T13, PIP5K2B (Homo sapiens, UniProt P78356); test: KINOMEscan; format: binding; settings: read-out: Percent Control
T13 construct: purchased Eurofins DiscoverX KINOMEscan (scanMAX 468)
T13 sequence (P78356 whole entry): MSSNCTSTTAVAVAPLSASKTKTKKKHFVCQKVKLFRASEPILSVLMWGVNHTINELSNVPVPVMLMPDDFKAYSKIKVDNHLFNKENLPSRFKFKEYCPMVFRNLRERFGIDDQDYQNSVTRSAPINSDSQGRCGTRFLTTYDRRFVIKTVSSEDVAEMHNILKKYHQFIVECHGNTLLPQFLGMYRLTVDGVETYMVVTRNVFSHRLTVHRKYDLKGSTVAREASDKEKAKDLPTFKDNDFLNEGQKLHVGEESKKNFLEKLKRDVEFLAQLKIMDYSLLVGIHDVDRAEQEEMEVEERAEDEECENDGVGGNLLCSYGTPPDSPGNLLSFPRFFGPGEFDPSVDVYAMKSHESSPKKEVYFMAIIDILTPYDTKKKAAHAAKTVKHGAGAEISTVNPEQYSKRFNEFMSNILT

[1] = molecular target: T14, RSK4(Kin.Dom.2-C-terminal) (Homo sapiens, UniProt Q9UK32); test: KINOMEscan; format: binding; settings: read-out: Percent Control
T14 construct: RSK4(Kin.Dom.2-C-terminal); purchased Eurofins DiscoverX KINOMEscan (scanMAX 468)

PIK3CA(H1047L) = molecular target: T15, PIK3CA(H1047L) (Homo sapiens, UniProt P42336, H1047L); test: KINOMEscan; format: binding; settings: read-out: Percent Control
T15 construct: purchased Eurofins DiscoverX KINOMEscan (scanMAX 468)
T15 sequence (P42336 whole entry H1047L): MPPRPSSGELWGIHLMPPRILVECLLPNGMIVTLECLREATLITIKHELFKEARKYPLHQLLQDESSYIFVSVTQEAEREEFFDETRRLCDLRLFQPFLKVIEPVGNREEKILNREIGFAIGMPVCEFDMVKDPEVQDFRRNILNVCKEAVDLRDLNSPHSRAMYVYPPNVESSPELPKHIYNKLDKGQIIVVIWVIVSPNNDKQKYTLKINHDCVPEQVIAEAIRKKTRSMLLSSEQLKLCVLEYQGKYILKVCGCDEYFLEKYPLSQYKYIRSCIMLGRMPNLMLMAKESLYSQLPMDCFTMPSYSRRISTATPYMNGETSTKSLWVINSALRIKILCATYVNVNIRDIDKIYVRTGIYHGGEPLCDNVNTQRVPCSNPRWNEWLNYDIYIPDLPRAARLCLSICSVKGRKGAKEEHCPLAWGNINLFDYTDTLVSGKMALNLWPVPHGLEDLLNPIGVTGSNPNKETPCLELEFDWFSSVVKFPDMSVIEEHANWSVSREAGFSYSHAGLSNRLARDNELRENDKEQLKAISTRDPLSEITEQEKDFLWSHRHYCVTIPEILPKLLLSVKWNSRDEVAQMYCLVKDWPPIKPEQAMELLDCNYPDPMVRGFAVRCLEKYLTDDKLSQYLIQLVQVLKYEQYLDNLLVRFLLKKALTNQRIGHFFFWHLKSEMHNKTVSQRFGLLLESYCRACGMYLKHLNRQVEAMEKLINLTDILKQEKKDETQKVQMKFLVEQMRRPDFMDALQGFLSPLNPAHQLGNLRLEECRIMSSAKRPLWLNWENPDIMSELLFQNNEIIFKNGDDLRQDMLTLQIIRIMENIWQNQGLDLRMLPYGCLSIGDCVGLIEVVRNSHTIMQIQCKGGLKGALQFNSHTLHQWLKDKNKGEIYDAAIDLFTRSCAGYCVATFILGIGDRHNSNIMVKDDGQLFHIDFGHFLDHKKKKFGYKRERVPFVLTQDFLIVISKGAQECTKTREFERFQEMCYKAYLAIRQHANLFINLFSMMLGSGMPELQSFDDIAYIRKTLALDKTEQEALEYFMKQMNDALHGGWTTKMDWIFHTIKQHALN

PCTK3 = molecular target: T16, PCTK3 (Homo sapiens, UniProt Q07002); test: KINOMEscan; format: binding; settings: read-out: Percent Control
T16 construct: purchased Eurofins DiscoverX KINOMEscan (scanMAX 468)
T16 sequence (Q07002 whole entry): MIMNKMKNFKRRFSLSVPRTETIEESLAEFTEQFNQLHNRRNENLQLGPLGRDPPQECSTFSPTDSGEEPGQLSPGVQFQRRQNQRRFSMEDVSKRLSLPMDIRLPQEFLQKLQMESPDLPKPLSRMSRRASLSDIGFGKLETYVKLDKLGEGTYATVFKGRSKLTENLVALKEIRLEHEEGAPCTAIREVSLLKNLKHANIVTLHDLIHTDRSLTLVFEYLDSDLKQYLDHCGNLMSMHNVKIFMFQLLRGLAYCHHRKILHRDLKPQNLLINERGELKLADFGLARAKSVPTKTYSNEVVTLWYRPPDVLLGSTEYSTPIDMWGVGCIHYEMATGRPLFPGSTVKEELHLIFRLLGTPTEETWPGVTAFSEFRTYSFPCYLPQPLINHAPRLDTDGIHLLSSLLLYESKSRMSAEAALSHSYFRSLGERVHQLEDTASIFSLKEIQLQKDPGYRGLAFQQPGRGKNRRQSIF

BRSK2 = molecular target: T17, BRSK2 (Homo sapiens, UniProt Q8IWQ3); test: KINOMEscan; format: binding; settings: read-out: Percent Control
T17 construct: purchased Eurofins DiscoverX KINOMEscan (scanMAX 468)

PYK2 = molecular target: T18, PYK2 (Homo sapiens, UniProt Q14289); test: KINOMEscan; format: binding; settings: read-out: Percent Control
T18 construct: purchased Eurofins DiscoverX KINOMEscan (scanMAX 468)

ARK5 = molecular target: T19, ARK5 (Homo sapiens, UniProt O60285); test: KINOMEscan; format: binding; settings: read-out: Percent Control
T19 construct: purchased Eurofins DiscoverX KINOMEscan (scanMAX 468)

BRAF(V600E) = molecular target: T20, BRAF(V600E) (Homo sapiens, UniProt P15056, V600E); test: KINOMEscan; format: binding; settings: read-out: Percent Control
T20 construct: purchased Eurofins DiscoverX KINOMEscan (scanMAX 468)
T20 sequence (P15056 whole entry V600E): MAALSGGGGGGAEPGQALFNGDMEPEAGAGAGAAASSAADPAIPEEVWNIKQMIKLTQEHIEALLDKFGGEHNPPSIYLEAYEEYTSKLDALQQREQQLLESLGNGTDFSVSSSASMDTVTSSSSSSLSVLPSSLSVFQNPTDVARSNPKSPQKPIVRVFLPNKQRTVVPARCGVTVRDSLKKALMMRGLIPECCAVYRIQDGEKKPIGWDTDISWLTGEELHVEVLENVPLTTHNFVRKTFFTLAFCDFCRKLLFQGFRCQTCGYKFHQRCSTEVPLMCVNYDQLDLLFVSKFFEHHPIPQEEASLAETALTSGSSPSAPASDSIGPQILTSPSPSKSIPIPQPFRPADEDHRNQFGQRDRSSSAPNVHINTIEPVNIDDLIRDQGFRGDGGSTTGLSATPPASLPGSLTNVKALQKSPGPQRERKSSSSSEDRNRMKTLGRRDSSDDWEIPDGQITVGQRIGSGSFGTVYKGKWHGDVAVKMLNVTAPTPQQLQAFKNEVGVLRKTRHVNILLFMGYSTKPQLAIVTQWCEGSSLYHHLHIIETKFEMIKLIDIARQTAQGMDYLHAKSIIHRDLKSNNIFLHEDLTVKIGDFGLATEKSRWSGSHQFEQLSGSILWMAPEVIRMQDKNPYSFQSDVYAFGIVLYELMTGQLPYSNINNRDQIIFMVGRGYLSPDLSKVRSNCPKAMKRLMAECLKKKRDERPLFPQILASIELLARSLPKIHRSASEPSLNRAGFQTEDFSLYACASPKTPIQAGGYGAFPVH

PHKG1 = molecular target: T21, PHKG1 (Homo sapiens, UniProt Q16816); test: KINOMEscan; format: binding; settings: read-out: Percent Control
T21 construct: purchased Eurofins DiscoverX KINOMEscan (scanMAX 468)

PIP5K1A = molecular target: T22, PIP5K1A (Homo sapiens, UniProt Q99755); test: KINOMEscan; format: binding; settings: read-out: Percent Control
T22 construct: purchased Eurofins DiscoverX KINOMEscan (scanMAX 468)

NEK11 = molecular target: T23, NEK11 (Homo sapiens, UniProt Q8NG66); test: KINOMEscan; format: binding; settings: read-out: Percent Control
T23 construct: purchased Eurofins DiscoverX KINOMEscan (scanMAX 468)

ACVR2A = molecular target: T24, ACVR2A (Homo sapiens, UniProt P27037); test: KINOMEscan; format: binding; settings: read-out: Percent Control
T24 construct: purchased Eurofins DiscoverX KINOMEscan (scanMAX 468)

MKNK1 = molecular target: T25, MKNK1 (Homo sapiens, UniProt Q9BUB5); test: KINOMEscan; format: binding; settings: read-out: Percent Control
T25 construct: purchased Eurofins DiscoverX KINOMEscan (scanMAX 468)

FLT4 = molecular target: T26, FLT4 (Homo sapiens, UniProt P35916); test: KINOMEscan; format: binding; settings: read-out: Percent Control
T26 construct: purchased Eurofins DiscoverX KINOMEscan (scanMAX 468)

PRKCH = molecular target: T27, PRKCH (Homo sapiens, UniProt P24723); test: KINOMEscan; format: binding; settings: read-out: Percent Control
T27 construct: purchased Eurofins DiscoverX KINOMEscan (scanMAX 468)

CSNK2A2 = molecular target: T28, CSNK2A2 (Homo sapiens, UniProt P19784); test: KINOMEscan; format: binding; settings: read-out: Percent Control
T28 construct: purchased Eurofins DiscoverX KINOMEscan (scanMAX 468)
T28 sequence (P19784 whole entry): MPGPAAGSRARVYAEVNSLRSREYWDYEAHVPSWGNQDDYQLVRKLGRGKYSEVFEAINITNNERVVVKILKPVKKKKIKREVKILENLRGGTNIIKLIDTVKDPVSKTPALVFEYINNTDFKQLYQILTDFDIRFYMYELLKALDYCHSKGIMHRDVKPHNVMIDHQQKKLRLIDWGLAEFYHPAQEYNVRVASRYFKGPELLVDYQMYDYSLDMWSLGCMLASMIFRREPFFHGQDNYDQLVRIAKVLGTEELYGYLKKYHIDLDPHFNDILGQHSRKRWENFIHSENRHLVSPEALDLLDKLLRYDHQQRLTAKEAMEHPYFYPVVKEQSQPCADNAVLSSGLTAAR

Hs_HASPIN = molecular target: T29, Hs_HASPIN (Homo sapiens, UniProt Q8TF76); parameters: method as in ref 13 (a number printed in a supplementary file, which may have a reference list of its own: not looked up in the article's list); settings: DB18, cited from earlier work
T29 construct: host or cells: bacteria
T29 sequence (Q8TF76 1-798): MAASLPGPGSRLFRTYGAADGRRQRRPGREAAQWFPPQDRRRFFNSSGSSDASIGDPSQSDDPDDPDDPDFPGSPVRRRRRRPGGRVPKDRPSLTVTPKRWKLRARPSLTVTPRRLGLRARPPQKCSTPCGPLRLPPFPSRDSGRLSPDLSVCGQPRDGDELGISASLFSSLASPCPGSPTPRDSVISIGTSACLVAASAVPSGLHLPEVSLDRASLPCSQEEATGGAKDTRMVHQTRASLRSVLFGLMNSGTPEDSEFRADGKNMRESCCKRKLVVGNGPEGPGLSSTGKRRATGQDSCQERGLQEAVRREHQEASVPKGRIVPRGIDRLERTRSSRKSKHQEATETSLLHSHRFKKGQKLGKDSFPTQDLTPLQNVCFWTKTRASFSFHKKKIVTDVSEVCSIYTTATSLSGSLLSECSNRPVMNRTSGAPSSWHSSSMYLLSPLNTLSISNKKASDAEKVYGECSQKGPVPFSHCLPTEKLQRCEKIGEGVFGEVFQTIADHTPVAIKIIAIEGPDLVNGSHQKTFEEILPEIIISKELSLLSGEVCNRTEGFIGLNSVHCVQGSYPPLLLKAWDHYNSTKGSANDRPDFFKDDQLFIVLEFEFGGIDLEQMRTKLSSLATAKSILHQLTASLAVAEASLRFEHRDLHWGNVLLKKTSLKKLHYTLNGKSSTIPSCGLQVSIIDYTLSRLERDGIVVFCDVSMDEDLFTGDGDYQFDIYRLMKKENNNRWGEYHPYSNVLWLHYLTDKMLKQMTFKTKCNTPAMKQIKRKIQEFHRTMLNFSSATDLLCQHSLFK

TNK1 = molecular target: T30, TNK1 (Homo sapiens, UniProt Q13470); test: KINOMEscan; format: binding; settings: read-out: Percent Control
T30 construct: purchased Eurofins DiscoverX KINOMEscan (scanMAX 468)

PLK1 = molecular target: T31, PLK1 (Homo sapiens, UniProt P53350); test: KINOMEscan; format: binding; settings: read-out: Percent Control
T31 construct: purchased Eurofins DiscoverX KINOMEscan (scanMAX 468)
T31 sequence (P53350 whole entry): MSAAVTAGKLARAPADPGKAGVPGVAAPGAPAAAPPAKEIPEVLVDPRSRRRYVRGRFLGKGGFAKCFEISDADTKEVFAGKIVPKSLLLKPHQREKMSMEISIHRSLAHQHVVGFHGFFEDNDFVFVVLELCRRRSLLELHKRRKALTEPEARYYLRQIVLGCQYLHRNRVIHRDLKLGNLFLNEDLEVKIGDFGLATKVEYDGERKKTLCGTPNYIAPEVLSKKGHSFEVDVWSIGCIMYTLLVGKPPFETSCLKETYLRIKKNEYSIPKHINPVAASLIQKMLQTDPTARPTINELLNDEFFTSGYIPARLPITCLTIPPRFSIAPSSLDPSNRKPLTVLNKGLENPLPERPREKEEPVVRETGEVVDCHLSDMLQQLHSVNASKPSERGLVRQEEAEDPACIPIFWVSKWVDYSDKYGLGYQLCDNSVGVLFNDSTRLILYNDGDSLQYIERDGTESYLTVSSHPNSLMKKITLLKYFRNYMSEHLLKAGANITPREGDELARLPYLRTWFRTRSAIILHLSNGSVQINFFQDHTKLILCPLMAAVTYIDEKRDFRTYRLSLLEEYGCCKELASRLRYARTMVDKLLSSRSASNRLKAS

Structure (SMILES): Cc1ccc(-n2cc(COc3cccc4cnc(Nc5cccc(Cl)c5)nc34)nn2)c([N+](=O)[O-])c1 [DB18]
- remaining binding at 1 µM (ADCK3): 100%
- remaining binding at 1 µM (EGFR(S752-I759del)): 91%
- remaining binding at 1 µM (DDR1): 100%
- remaining binding at 1 µM (TYRO3): 100%
- remaining binding at 1 µM (FER): 100%
- remaining binding at 1 µM (MLCK): 89%
- remaining binding at 1 µM (BUB1): 97%
- remaining binding at 1 µM (HPK1): 100%
- remaining binding at 1 µM (CDK4): 100%
- remaining binding at 1 µM (DAPK3): 98%
- remaining binding at 1 µM (SRPK2): 87%
- remaining binding at 1 µM (STK36): 100%
- remaining binding at 1 µM (PIP5K2B): 100%
- remaining binding at 1 µM [1]: 100%
- remaining binding at 1 µM (PIK3CA(H1047L)): 100%
- remaining binding at 1 µM (PCTK3): 100%
- remaining binding at 1 µM (BRSK2): 97%
- remaining binding at 1 µM (PYK2): 100%
- remaining binding at 1 µM (ARK5): 100%
- remaining binding at 1 µM (BRAF(V600E)): 96%
- remaining binding at 1 µM (PHKG1): 100%
- remaining binding at 1 µM (PIP5K1A): 100%
- remaining binding at 1 µM (NEK11): 100%
- remaining binding at 1 µM (ACVR2A): 100%
- remaining binding at 1 µM (MKNK1): 100%
- remaining binding at 1 µM (FLT4): 100%
- remaining binding at 1 µM (PRKCH): 100%
- remaining binding at 1 µM (CSNK2A2): 61%
- % of residual activity Hs_HASPIN (Hs_HASPIN; 1 µM): 96%
- % of residual activity Hs_HASPIN (Hs_HASPIN; 10 µM): 94%
- remaining binding at 1 µM (TNK1): 100%
- remaining binding at 1 µM (PLK1): 100%
